Data from ChEMBL document CHEMBL4020815 (J Med Chem, 2017).
pIC50: −log10 of the molar value. Values after ≈ are worked out from the molar mass of the structure shown.

Columns and labels:
[1] = Permeability across apical to basolateral side in MDCK cells at 20 uM; type: ADME, cell-based, Canis lupus familiaris; conditions: dog
[2] = tested on: Mus musculus; assay: In vivo inhibition of AICARFT in tumor of athymic nude mouse xenografted with human MDA-MB-231met2 cells assessed as increase in ZMP levels at 60 mg/kg, bid administered via oral gavage for 22 days relative to control; type: functional
[3] = tested on: Mus musculus; assay: In vivo inhibition of AICARFT in tumor of athymic nude mouse xenografted with human MDA-MB-231met2 cells assessed as increase in AICAr levels at 30 mg/kg, bid administered via oral gavage for 22 days relative to control; type: functional
[4] = tested on: Mus musculus; assay: In vivo inhibition of AICARFT in tumor of low folate diet fed nude mouse xenografted with human NCI-H460 cells assessed as increase in intratumoral ZMP levels at 0.3 to 30 mg/kg after 4 hrs relative to vehicle-treated control; type: functional
[5] = molecular target: CYP3A4 (Homo sapiens, UniProt P08684); assay: Inhibition of human CYP3A4 at 10 uM relative to control; type: ADME
CYP3A4, sequence (P08684 whole entry): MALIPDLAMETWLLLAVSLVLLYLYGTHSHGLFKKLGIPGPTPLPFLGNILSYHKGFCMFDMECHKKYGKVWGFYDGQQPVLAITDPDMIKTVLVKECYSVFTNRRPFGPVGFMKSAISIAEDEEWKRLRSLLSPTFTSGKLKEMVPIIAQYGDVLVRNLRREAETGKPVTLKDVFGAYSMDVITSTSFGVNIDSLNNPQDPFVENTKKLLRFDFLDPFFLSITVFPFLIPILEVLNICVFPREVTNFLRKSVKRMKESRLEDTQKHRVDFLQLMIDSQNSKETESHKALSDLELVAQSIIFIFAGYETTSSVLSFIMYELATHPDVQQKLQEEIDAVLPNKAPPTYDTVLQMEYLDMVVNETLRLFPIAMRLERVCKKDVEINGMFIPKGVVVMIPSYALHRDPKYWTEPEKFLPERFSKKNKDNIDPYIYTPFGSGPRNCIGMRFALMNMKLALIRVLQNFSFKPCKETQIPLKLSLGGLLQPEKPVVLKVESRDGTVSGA

[6] = tested on: MDA-MB-231; assay: Cytotoxicity against human MDA-MB-231 cells assessed as growth inhibition using regular folate media after 7 days by Alamar blue assay; type: functional; conditions: MDA-MB-231, 168 h
[7] = molecular target: T1, C-1-tetrahydrofolate synthase, cytoplasmic (Homo sapiens, UniProt P11586); assay: Inhibition of MTHFD1 (unknown origin) using NADP/5,10-methylene THF as substrate after 30 mins by HPLC method
T1 sequence (P11586 whole entry): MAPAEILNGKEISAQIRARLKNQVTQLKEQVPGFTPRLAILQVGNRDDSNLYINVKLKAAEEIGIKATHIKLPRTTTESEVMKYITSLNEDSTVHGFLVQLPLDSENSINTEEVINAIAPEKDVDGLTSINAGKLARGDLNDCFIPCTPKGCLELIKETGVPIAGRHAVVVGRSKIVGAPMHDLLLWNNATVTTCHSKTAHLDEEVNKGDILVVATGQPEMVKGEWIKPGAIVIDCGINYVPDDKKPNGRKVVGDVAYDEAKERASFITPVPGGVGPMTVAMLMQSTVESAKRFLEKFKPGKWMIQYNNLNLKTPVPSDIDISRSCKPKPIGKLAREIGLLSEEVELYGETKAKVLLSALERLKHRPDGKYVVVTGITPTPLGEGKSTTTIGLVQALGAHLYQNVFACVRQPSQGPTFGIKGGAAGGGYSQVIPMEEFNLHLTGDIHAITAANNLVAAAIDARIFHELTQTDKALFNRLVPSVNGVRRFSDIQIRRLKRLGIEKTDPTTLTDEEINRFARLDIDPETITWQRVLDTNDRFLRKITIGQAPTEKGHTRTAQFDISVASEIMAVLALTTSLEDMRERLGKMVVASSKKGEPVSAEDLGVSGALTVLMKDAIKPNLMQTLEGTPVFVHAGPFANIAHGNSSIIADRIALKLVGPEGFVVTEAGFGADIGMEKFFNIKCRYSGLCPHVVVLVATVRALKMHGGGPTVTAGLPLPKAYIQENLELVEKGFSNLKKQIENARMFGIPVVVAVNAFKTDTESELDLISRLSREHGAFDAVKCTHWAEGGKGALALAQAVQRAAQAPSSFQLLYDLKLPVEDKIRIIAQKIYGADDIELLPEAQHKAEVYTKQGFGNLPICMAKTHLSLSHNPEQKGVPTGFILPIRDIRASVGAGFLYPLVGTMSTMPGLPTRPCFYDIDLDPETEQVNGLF

[8] = molecular target: T2, Serine hydroxymethyltransferase, cytosolic (Homo sapiens, UniProt P34896); assay: Inhibition of SHMT1 (unknown origin) using serine/THF as substrate after 50 mins by HPLC method
T2 sequence (P34896 whole entry): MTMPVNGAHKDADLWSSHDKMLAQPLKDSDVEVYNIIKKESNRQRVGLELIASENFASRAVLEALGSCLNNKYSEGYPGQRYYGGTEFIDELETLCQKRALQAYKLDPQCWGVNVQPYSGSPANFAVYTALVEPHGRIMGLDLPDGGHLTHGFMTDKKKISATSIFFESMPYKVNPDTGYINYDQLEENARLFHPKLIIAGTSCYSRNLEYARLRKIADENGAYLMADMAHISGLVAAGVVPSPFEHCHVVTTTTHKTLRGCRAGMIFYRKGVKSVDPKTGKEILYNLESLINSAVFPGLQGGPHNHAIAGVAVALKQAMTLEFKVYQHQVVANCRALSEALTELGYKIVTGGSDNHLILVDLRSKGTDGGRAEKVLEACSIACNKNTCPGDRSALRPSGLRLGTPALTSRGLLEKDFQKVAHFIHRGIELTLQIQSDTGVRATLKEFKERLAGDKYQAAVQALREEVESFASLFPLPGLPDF

[9] = molecular target: T3, Bifunctional methylenetetrahydrofolate dehydrogenase/cyclohydrolase, mitochondrial (Homo sapiens, UniProt P13995); assay: Inhibition of MTHFD2 (unknown origin) using NAD/5,10-methylene THF as substrate after 30 mins by HPLC method
T3 sequence (P13995 whole entry): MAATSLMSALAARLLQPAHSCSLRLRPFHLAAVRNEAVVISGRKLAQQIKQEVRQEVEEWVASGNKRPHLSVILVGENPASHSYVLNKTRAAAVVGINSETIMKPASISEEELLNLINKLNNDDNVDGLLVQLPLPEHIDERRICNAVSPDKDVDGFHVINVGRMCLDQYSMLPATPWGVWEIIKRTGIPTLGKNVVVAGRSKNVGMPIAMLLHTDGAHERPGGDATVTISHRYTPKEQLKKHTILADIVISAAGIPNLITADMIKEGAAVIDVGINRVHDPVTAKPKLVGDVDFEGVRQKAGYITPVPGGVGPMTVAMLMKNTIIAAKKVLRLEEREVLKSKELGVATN

[10] = tested on: Mus musculus; assay: Unbound clearance in CD-1 mouse at 1 mg/kg, iv by LC-MS/MS method; type: ADME, organism-based; conditions: in vivo
[11] = Fraction unbound in CD-1 mouse plasma; type: ADME, cell-free
[12] = tested on: NCI-H460; assay: Cytotoxicity against human NCI-H460 cells assessed as growth inhibition using regular folate media after 7 days by Alamar blue assay; type: functional; conditions: NCI-H460, 168 h
[13] = Antitumor activity against human MDA-MB-231met2 cells xenografted in athymic nude mouse assessed as tumor volume at 30 mg/kg, bid administered via oral gavage for 22 days relative to control; type: functional
[14] = tested on: Mus musculus; assay: Unbound volume of distribution at steady state in CD-1 mouse at 1 mg/kg, iv by LC-MS/MS method; type: ADME, organism-based; conditions: in vivo
[15] = tested on: Mus musculus; assay: In vivo inhibition of AICARFT in tumor of athymic nude mouse xenografted with human MDA-MB-231met2 cells assessed as increase in ZMP levels at 30 mg/kg, bid administered via oral gavage for 22 days relative to control; type: functional
[16] = tested on: Mus musculus; assay: Unbound Cmax in CD-1 mouse at 10 mg/kg, po by LC-MS/MS method; type: ADME, organism-based; conditions: in vivo
[17] = Equilibrium aqueous solubility of the compound at pH 7.5 after 20 hrs by HPLC method; type: physicochemical
[18] = Oral bioavailability in CD-1 mouse at 10 mg/kg by LC-MS/MS method; type: ADME, organism-based; conditions: in vivo

O=c1[nH]ccc2cc(F)c(NS(=O)(=O)c3ccc(N4CC[C@@H](O)C4)s3)cc12
permeability [1]: 0.2%
fold change (FC) [2]: 16
fold change (FC) [3]: 30
fold change (FC) [4]: >100
inhibition at 10 µM [5]: < 10%
GI50 [6]: 0.044 µM
pIC50 [7]: < 4.00
pIC50 [8]: < 4.00
pIC50 [9]: < 4.00
CL free [10]: 4.68 L/h/kg
fraction unbound [11]: 0.06
GI50 [12]: 6.58 µM
Activity [13]: 16%
Vduss [14]: 12 L/kg
fold change (FC) [15]: 10
fCmax [16]: 289 nM
solubility thermodynamic at 20 h [17]: 0.02 mg/mL (≈ 48.8 µM)
bioavailability [18]: 25%
